Measurements as given in article PMC8448819, “The Arabidopsis MIK2 receptor elicits immunity by sensing a conserved signature from phytocytokines and microbes” (Nature Communications, 2021).
Where “and” joins values, the source holds several entries; their conditions need not be identical. Identical values can stand only once. Like-named read-outs stand apart in the source and are kept apart here.

Experiments:
[1] = tested on: bak1-4 and bak1-5/serk4 mutant seedlings; assay: Root growth assay, coreceptor mutants; assay type: in vivo, Arabidopsis thaliana
Source text: The Arabidopsis thaliana accession Columbia-0 (Col-0) was used as wild type (WT). T-DNA insertion mutants of mik2-1 (SALK_061769), mik2-2 (SALK_046987), mik2-like (SALK_112341), and rlk7-3 (SALK_120595) were obtained from the Nottingham Arabidopsis Stock Centre (NASC). The fls2 (SALK_141277), bak1-4, bik1-1/pbl1-1, bak1-5/serk4-1, rbohd mutants, and the transgenic line expressing p35S::GFP have been reported previously[19],[62],[63]. The hae/hsl2 mutant was kindly provided by Dr. Reidunn B. Aalen (University of Oslo, Norway), the pepr1-2/pepr2-2 (pepr1,2) mutant by Dr. Zhi Qi (Inner Mongolia University, China), the scoop12 mutant by Dr. Sébastien Aubourg (INRA, France), a transgenic line expressing p35S::Aequorin by Dr. Marc Knight (Durham University, UK), transgenic line expressing pMYB51::GUS by Dr. Frederick M. Ausubel (Harvard Medical School, USA). […]
Cold stratified seeds were surface-sterilized with 70% (v/v) ethanol for 5 min and were sown on ½MS plates with or without peptides at indicated concentrations. Ten-day-old seedlings grown on plates vertically in a growth chamber were photographed, and the root lengths of seedlings were measured using Image J (http://rsb.info.nih.gov/ij/).

[2] = tested on: mik2-1 and mik2-2 mutant seedlings; assay type: in vivo, Arabidopsis thaliana; conditions: for Root length (Fig. 3d) / Root length (Fig. 3b) / Root length (Fig. 3e): individual values, one per line
[3] = tested on: Arabidopsis WT seedlings; conditions: RLK7 activation by PIP1; cited from earlier work
Source text: (§1) Plant plasma membrane-resident RKs perceive diverse exogenous and endogenous signals via the extracellular domain and activate intracellular responses through the cytoplasmic kinase domain[1]–[3]. The chimeric receptors with the swapped extracellular and intracellular domains between different RKs have been used to study the specificity of signal perception and signaling activation[48]–[52]. The extracellular domains of RKs determine the ligand-binding specificity[50],[51],[53]. The intracellular kinase domains of different RKs also trigger specific responses. For example, the chimeric rec ...

[4] = tested on: Arabidopsis WT (Col-0) seedlings; conditions: RLK7 activation by PIP1; cited from earlier work
Source text: as §1

| Substance | root growth inhibition in bak1-4 ([1]; bak1-4, 1 µM) | root growth inhibition in bak1-5/serk4 ([1]; bak1-5/serk4, 1 µM) | root growth retardation, concentration series, mik2-1 ([2]; 1 to 100 nM SCOOP10^B) | Root length (Fig. 3d) ([2]; mik2-1, 1 nM) | Root length (Fig. 3d) ([2]; mik2-1, 10 nM) | Root length (Fig. 3d) ([2]; mik2-1, 100 nM) | Root length (Fig. 3b) ([2]; mik2-1) | Root length (Fig. 3e) ([2]; mik2-1) | root growth inhibition in mik2 ([2]; mik2-1 and mik2-2, 10-day-old seedlings, 1 µM peptide) | Root length (Fig. 3b) ([2]; mik2-2) | Root length (Fig. 3e) ([2]; mik2-2) | ROS production [3] | root growth [4] |
| --- | --- | --- | --- | --- | --- | --- | --- | --- | --- | --- | --- | --- | --- |
| PNGDIFTGPSGSGHGGGR [SCOOP10B, synthesized SCOOP peptide corresponding to the SxS motif] | partially compromised in bak1-4 | compromised in bak1-4 and bak1-5/serk4 | completely abolished in mik2-1 | 32.99 and 31.78 and 33.56 and 34.62 and 30.06 and 35.81 and 29.29 | 32.32 and 29.96 and 32.75 and 34.52 and 30.66 and 29.77 and 30.84 and 33.97 | 29.63 and 33.44 and 32.76 and 35.81 and 32.02 and 28.87 and 34.13 and 30.25 | 25.833 and 26.302 and 24.889 and 27.342 and 26.636 and 27.534 and 28.728 and 25.164 and 27.761 | 22.911 and 21.027 and 23.034 and 25.697 and 26.332 and 26.187 and 22.644 and 27.144 and 23.211 and 23.187 | insensitive to the treatment of SCOOP10^B | 28.386 and 27.709 and 30.155 and 29.447 and 28.883 and 28.332 and 29.63 and 28.607 and 26.83 | 22.343 and 22.532 and 23.158 and 21.859 and 27.286 and 27.619 and 26.253 and 24.148 and 29.659 and 25.362 |  |  |
| RLASGP(OH)SPRGRGH [PIP1, secreted peptide, ligand of RLK7] |  |  |  |  |  |  |  |  |  |  |  | weakly induces ROS production | moderately inhibits root growth |
